Measurements taken from PubChem BioAssay AID248 (DTP/NCI, 2004).
Where “and” joins values, the source holds several entries; their conditions need not be identical. Equal entries are not always repeated. Inconclusive results and toxic doses are left out.

Test system: L1210 leukemia ip in BDF1 mice, survival T/C
Test: NCI In Vivo Anticancer Drug Screen. Data for tumor model L1210 Leukemia (intraperitoneal) in B6D2F1 (BDF1) mice
Details: endpoint: mean survival time, higher = longer survival
Procedure, shortened: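 Tumor was transplanted into mice, which were then dosed with test compound or vehicle alone. Survival was recorded for each group, and the treated figure was expressed relative to the control figure.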

COc1cc([C@@H]2c3cc4c(cc3[C@@H](OC3OC5COC(C)OC5C(O)C3O)[C@H]3COC(=O)[C@H]23)OCO4)cc(OC)c1O (some centres undefined)
T/C (dose: 1.8 mg/kg/injection, schedule: Q03HX016 (ip), vehicle: saline): 292 % of control | T/C (dose: 1.8 mg/kg/injection, schedule: Q03HX024 (ip), vehicle: saline): 315 % of control | T/C (dose: 2.0 mg/kg/injection, schedule: Q01DX009 (ip), vehicle: Klucel (hydroxypropylcellulose) (HPC)): 161 % of control and 172 % of control | T/C (dose: 2.7 mg/kg/injection, schedule: Q03HX016 (ip), vehicle: saline): 510 % of control | T/C (dose: 2.7 mg/kg/injection, schedule: Q03HX024 (ip), vehicle: saline): 600 % of control | T/C (dose: 4.0 mg/kg/injection, schedule: Q01DX001 (sc), vehicle: Klucel (hydroxypropylcellulose) (HPC)): 97 % of control | T/C (dose: 4.0 mg/kg/injection, schedule: Q01DX001 (sc), vehicle: clinical formulation): 102 % of control | T/C (dose: 4.0 mg/kg/injection, schedule: Q01DX009 (ip), vehicle: Klucel (hydroxypropylcellulose) (HPC)): 104 % of control and 196 % of control and 266 % of control | T/C (dose: 4.0 mg/kg/injection, schedule: Q01DX009 (sc), vehicle: clinical formulation): 183 % of control | T/C (dose: 4.0 mg/kg/injection, schedule: Q03HX016 (ip), vehicle: saline): 409 % of control | T/C (dose: 4.0 mg/kg/injection, schedule: Q03HX016 (oral), vehicle: Klucel (hydroxypropylcellulose) (HPC)): 105 % of control | T/C (dose: 4.0 mg/kg/injection, schedule: Q03HX024 (ip), vehicle: saline): 568 % of control | T/C (dose: 4.5 mg/kg/injection, schedule: Q03HX024 (ip), vehicle: saline): 409 % of control | T/C (dose: 6.0 mg/kg/injection, schedule: Q03HX016 (ip), vehicle: saline): 154 % of control | T/C (dose: 8.0 mg/kg/injection, schedule: Q01DX001 (sc), vehicle: Klucel (hydroxypropylcellulose) (HPC)): 103 % of control | T/C (dose: 8.0 mg/kg/injection, schedule: Q01DX001 (sc), vehicle: clinical formulation): 106 % of control | T/C (dose: 8.0 mg/kg/injection, schedule: Q01DX009 (sc), vehicle: clinical formulation): 180 % of control | T/C (dose: 8.0 mg/kg/injection, schedule: Q03HX016 (oral), vehicle: Klucel (hydroxypropylcellulose) (HPC)): 105 % of control | T/C (dose: 8.0 mg/kg/injection, schedule: Q04DX003 (ip), vehicle: Klucel (hydroxypropylcellulose) (HPC)): 225 % of control | T/C (dose: 12.0 mg/kg/injection, schedule: Q03DX003 (ip), vehicle: saline): 319 % of control | T/C (dose: 12.0 mg/kg/injection, schedule: Q04DX003 (ip), vehicle: saline): 213 % of control | T/C (dose: 16.0 mg/kg/injection, schedule: Q01DX001 (sc), vehicle: Klucel (hydroxypropylcellulose) (HPC)): 106 % of control | T/C (dose: 16.0 mg/kg/injection, schedule: Q01DX001 (sc), vehicle: clinical formulation): 117 % of control | T/C (dose: 16.0 mg/kg/injection, schedule: Q01DX009 (sc), vehicle: Klucel (hydroxypropylcellulose) (HPC)): 208 % of control | T/C (dose: 16.0 mg/kg/injection, schedule: Q01DX009 (sc), vehicle: clinical formulation): 187 % of control | T/C (dose: 16.0 mg/kg/injection, schedule: Q03HX016 (oral), vehicle: Klucel (hydroxypropylcellulose) (HPC)): 105 % of control | T/C (dose: 16.0 mg/kg/injection, schedule: Q08DX002 (ip), vehicle: Klucel (hydroxypropylcellulose) (HPC)): 157 % of control | T/C (dose: 18.0 mg/kg/injection, schedule: Q03DX003 (ip), vehicle: saline): 395 % of control | T/C (dose: 18.0 mg/kg/injection, schedule: Q04DX003 (ip), vehicle: saline): 372 % of control | T/C (dose: 27.0 mg/kg/injection, schedule: Q03DX003 (ip), vehicle: saline): 552 % of control | T/C (dose: 27.0 mg/kg/injection, schedule: Q04DX003 (ip), vehicle: saline): 506 % of control | T/C (dose: 32.0 mg/kg/injection, schedule: Q01DX001 (sc), vehicle: Klucel (hydroxypropylcellulose) (HPC)): 115 % of control | T/C (dose: 32.0 mg/kg/injection, schedule: Q01DX009 (oral), vehicle: Klucel (hydroxypropylcellulose) (HPC)): 109 % of control | T/C (dose: 32.0 mg/kg/injection, schedule: Q03HX016 (oral), vehicle: Klucel (hydroxypropylcellulose) (HPC)): 119 % of control
